Assay results from ChEMBL document CHEMBL5729720, “Pyridine and pyrazine derivatives as preferential cannabinoid 2 agonists” (2023).

Target: Cannabinoid receptor 2 (Homo sapiens, UniProt P34972)
Experiment: Radioligand Binding Assay: The affinity of the compounds of the invention for cannabinoid CB1 receptors was determined using recommended amounts of membrane preparations (PerkinElmer) of human embryonic kidney (HEK) cells expressing the human CNR1 or CNR2 receptors in conjunction with 1.5 or 2.6 nM [3H]-CP-55,940 (Perkin Elmer) as radioligand, respectively. Binding was performed in binding buffer (50 mM Tris, 5 mM MgCl2, 2.5 mM EDTA, and 0.5% (wt/vol) fatty acid free BSA, pH 7.4 for CB1 receptor and 50 mM Tris, 5 mM MgCl2, 2.5 mM EGTA, and 0.1% (wt/vol) fatty acid free BSA, pH 7.4 for CB2 receptor) in a total volume of 0.2 ml for 1 h at 30° C. shaking. The reaction was terminated by rapid filtration through microfiltration plates coated with 0.5% polyethylenimine (UniFilter GFB filter plate; Packard). Bound radioactivity was analyzed for Ki using nonlinear regression analysis (Activity Base, ID Business Solution, Limited), with the Kd values for [3H]CP55,940 determined from saturation experiments. The compounds of formula (I) show an excellent affinity for the CB2 receptor.

Chain of Cannabinoid receptor 2 (P34972 whole entry): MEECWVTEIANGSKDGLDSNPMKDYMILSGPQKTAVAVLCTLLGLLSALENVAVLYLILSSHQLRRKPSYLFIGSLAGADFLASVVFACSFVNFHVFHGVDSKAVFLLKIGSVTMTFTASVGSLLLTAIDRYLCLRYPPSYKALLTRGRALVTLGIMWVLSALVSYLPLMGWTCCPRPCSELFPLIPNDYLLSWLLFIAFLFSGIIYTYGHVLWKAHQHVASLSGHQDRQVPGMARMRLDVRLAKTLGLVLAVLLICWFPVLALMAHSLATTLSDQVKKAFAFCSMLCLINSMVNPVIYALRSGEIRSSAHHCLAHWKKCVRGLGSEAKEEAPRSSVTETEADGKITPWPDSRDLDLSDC

CCC(CC)(NC(=O)c1ccc(N2CC(OC)C2)c(OC[C@H]2C[C@@H]2CO)n1)C(=O)OCCCCF
Ki: 1.8 nM

CCOC(=O)C(CC)(CC)NC(=O)c1ccc(N2CC(OC)C2)c(OC[C@H]2C[C@@H]2COCF)n1 (mixture of isomers)
Ki: 1.8 nM

CCOC(=O)C(CC)(CC)NC(=O)c1ccc(N2CC(OC)C2)c(OC[C@H]2C[C@@H]2COCCF)n1 (mixture of isomers)
Ki: 3.7 nM
